We go through five compounds from article PMC8802618 (ACS infectious diseases, 2021).

Each structure is given as a SMILES string. Converted amounts (≈) assume the structure as drawn. Where two headings read alike, the source gives them in different places. Bounds are passed on as bounds.

For series [1] the following is noted: cited from earlier work.
Series [2] relates to Chloroquine-Resistant (K1) strain of P. falciparum. Particulars: parent compound; cited from earlier work.
Series [3] deals with Chloroquine-Sensitive (NF54) strain of P. falciparum. The conditions noted are these: parent compound; cited from earlier work.
For series [4] the following is noted: single oral dose as low as 20 mg/kg; cited from earlier work.
In series [5] the test system is P. falciparum parasites harboring mutations in the Kelch protein, K13. The conditions noted are these: cited from earlier work.
For series [6] the following is noted: cited from earlier work. The source holds these as a separate data set.
Series [7] concerns Chloroquine-Resistant (K1) strain of P. falciparum. Type of series: cell-based. Particulars: for IC50 K1: 72 h [3H]-hypoxanthine incorporation, mean of two biological replicates.
Series [8] deals with Chloroquine-Sensitive (NF54) strain of P. falciparum. Type of series: cell-based. Particulars: 72 h [3H]-hypoxanthine incorporation; mean of two biological replicates.

Turning to `CC(C)(N)CNC(=O)C[C@H]1CC[C@]2(CC1)OO[C@]1(O2)C2CC3CC(C2)CC1C3` [Arterolane], the in vivo half-life in series [1] (in vivo) is 2 to 4 h.
As to `c1cc([C@H]2CC[C@]3(CC2)OO[C@]2(O3)C3CC4CC(C3)CC2C4)ccc1OCCN1CCOCC1` [compound 2], the “IC50 K1” value in series [2] is 1.6 ng/mL (≈ 3.41 nM). The “IC50 NF54” value in series [3] is listed as 1.9 ng/mL (≈ 4.05 nM). For the same compound, the cure rate in series [4] was 100%. Moreover, in series [5], the “activity against K13 mutant parasites” value is on record as “active”. The safety result in series [6] (up to a dose of 1600 mg) is given as “good safety properties”.
On to `[O-][N+]1(CCOc2ccc(C3CCC4(CC3)OOC3(O4)C4CC5CC(C4)CC3C5)cc2)CCOCC1` (stereo not shown) [compound 8], for which, in series [7], the “IC50 K1” value amounted to 1.4 ng/mL (≈ 2.88 nM). Further, the “in vitro activity against P. falciparum relative to parent 2” value in series [7] (K1 and NF54 strains, Table 1) is given as “comparable to 2”. Besides, the “IC50 NF54” value in series [8] came out at 2.3 ng/mL (≈ 4.74 nM). For the same compound, the “relative area under the plasma concentration versus time curve (AUC) of metabolites” value in series [6] (human, in vivo) is “comparatively lower AUC values”.
For the compound `[O-][N+]1(CCOc2ccc(C3CCC4(CC3)OOC3(O4)C4CC5CC3CC(O)(C5)C4)cc2)CCOCC1` (stereo not shown) [compound 11], in series [7], the “IC50 K1” value is on record as >100/>100 ng/mL. Besides, the “IC50 NF54” value in series [8] is >100/>100 ng/mL.
In the case of `C[C@H]1[C@@H](O)O[C@@H]2O[C@@]3(C)CC[C@H]4[C@H](C)CC[C@@H]1[C@@]24OO3` [dihydroartemisinin], the in vivo half-life in series [1] is recorded as ~ 2 h.
